For 1 molecule, melting point results are on record in patent publication US20060205751A1, “Novel compounds” (SmithKline Beecham Corporation, priority 2003, published 2006).

As usually defined, the melting point is the temperature, or range, at which the solid turns liquid.

Take `O=C(O)c1cccc(-c2cc3cc(Cl)c(Cl)cc3[nH]2)c1` [Example 1, 3-(5,6-Dichloro-1H-indol-2-yl)-benzoic acid]: the melting point was in the range of 79.5 to 80.5 °C.
